Values of other authors, collected in patent US12252709B2, “Culture media for culturing pluripotent stem cells in suspension” (Accellta Ltd., priority 2016, dated 2025).
Read-outs that look alike come from different tables or passages of the source.

Key:
[1] = test system: hESCs; details: for background differentiation: MATRIGEL matrix
[2] = test system: hESCs; details: Matrigel matrix, seven days (Sato et al, 2004)

In the case of “bFGF: basic fibroblast growth factor, medium supplement”, the background differentiation ([1]; serum replacement, 40 ng/ml bFGF [Xu et al, 2005b]) is listed as 28%.

For `O=C1Nc2cc(Br)ccc2/C1=C1/Nc2ccccc2/C1=N\O` [BIO, 6-bromoindirubin-3′-oxime], the “maintenance of hESC properties” value [2] is given as “maintained hESC properties”.

B1: Flt-3 ligand: protein factor added to bFGF medium (protein, UniProt P49771 27-235, looked up)
Fms-related tyrosine kinase 3 …: TQDCSFQHSPISSDFAVKIRELSDYLLQDYPVTVASNLQDEELCGGLWRLVLAQRWMERLKTVAGSKMQGLLERVNTEIHFVTKCAFQPPPSCLRFVQTNISRLLQETSEQLVALKPWITRQNFSRCLELQCQPDSSTLPPPWSPRPLEATAPTAPQPPLLLLLLLPVGLLLLAAAWCLHWQRTRRRTPRPGEQVPPVPSPQDLLLVEH
For B1, the differentiation ([1]; as before with 75 ng/ml of Flt-3 ligand added) is listed as 20%.

B2: Noggin: protein factor used with 40 ng/ml bFGF (protein, UniProt Q13253 28-232, looked up)
Noggin: QHYLHIRPAPSDNLPLVDLIEHPDPIFDPKEKDLNETLLRSLLGGHYDPGFMATSPPEDRPGGGGGAAGGAEDLAELDQLLRQRPSGAMPSEIKGLEFSEGLAQGKKQRLSKKLRRKLQMWLWSQTFCPVLYAWNDLGSRFWPRYVKVGSCFSKRSCSVPEGMVCKPSKSVHLTVLRWRCQRRGGQRCGWIPIQYPIISECKCSC
For B2, the background differentiation ([1]; 40 ng/ml bFGF and 0.5 μg/ml Noggin [Xu et al, 2005]) is given as 10%.
